In ChEMBL document CHEMBL2396542, “Membrane anchoring γ-secretase modulators with terpene-derived moieties” (Bioorg Med Chem Lett, 2013):

Experiments:
[1] = Micelle aggregation by compound at 5 to 100 uM by dynamic light scattering assay; format: physicochemical
[2] = biological target: T1, Presenilin-1 (Homo sapiens, UniProt P49768); test: Modulation of human gamma-secretase presenilin-1 subunit expressed in CHO cells coexpressing human APP assessed as increase in amyloid beta 38 generation at EC50 after 24 hrs by ELISA relative to control; format: cell-based
[3] = Micelle formation by compound at 5 to 100 uM by dynamic light scattering assay; format: physicochemical
[4] = biological target: T1, Presenilin-1; test: Modulation of human gamma-secretase presenilin-1 subunit expressed in CHO cells coexpressing human APP assessed as increase in amyloid beta 38 generation after 24 hrs by ELISA; format: cell-based
[5] = biological target: T1, Presenilin-1; test: Modulation of human gamma-secretase presenilin-1 subunit expressed in CHO cells coexpressing human APP assessed as decrease in amyloid beta 40 generation after 24 hrs by ELISA; format: cell-based
[6] = biological target: T1, Presenilin-1; test: Modulation of human gamma-secretase presenilin-1 subunit expressed in CHO cells coexpressing human APP assessed as decrease in amyloid beta 42 generation after 24 hrs by ELISA; format: cell-based
[7] = Micelle aggregation by compound at 100 uM by dynamic light scattering assay; format: physicochemical
[8] = Micelle formation by compound at 100 uM by dynamic light scattering assay; format: physicochemical

Compound	Activity [1]	Activity [2]	Activity [3]	EC50 [4]	IC50 [5]	IC50 ([6]; read-out: IC50)	IC50 ([6]; read-out: pIC50 (converted))	Activity [7]	Activity [8]
Cc1c(C)c2c(c(C)c1OCC(=O)O)CCC(C)(CCCC(C)CCCC(C)CCCC(C)C)O2 (stereo not drawn)	Not Active	55%	Not Active	4 µM	26 µM	12 µM	31.6 µM	–	–
CCCCCCCCOc1c(C)c(C)c2c(c1C)CCC(C)(C(=O)O)O2 (stereo not drawn)	Not Active	–	Not Active	> 50 µM	> 50 µM	57 µM	25.1 µM	–	–
Cc1c(C)c2c(c(C)c1O)CCC(C)(CCCC(C)CCCC(C)CCCC(C)C)O2 (racemic) [alpha-TOCHOPHEROL]	–	–	–	> 100 µM	> 100 µM	> 100 µM	–	–	–
C/C(=C\Cn1c2ccc(Cl)cc2c2ccc(C(C)C(=O)O)cc21)CCC[C@H](C)CCC[C@H](C)CCCC(C)C (stereo partly drawn)	Not Active	–	Not Active	> 50 µM	> 50 µM	23 µM	39.8 µM	–	–
COC(=O)COc1c(C)c(C)c2c(c1C)CCC(C)(CCCC(C)CCCC(C)CCCC(C)C)O2 (stereo not drawn)	–	–	–	> 100 µM	> 100 µM	> 100 µM	–	–	–
CC(C)=CCC/C(C)=C/CC/C(C)=C/COC(=O)C1(C)CCc2c(C)c(OCC(=O)O)c(C)c(C)c2O1 (stereo not drawn)	Not Active	35%	Not Active	1 µM	25 µM	27 µM	39.8 µM	–	–
CCCCCCCCCCCOc1c(C)c(C)c2c(c1C)CCC(C)(C(=O)O)O2 (stereo not drawn)	Not Active	65%	Not Active	10 µM	> 50 µM	28 µM	31.6 µM	Active	Active
C/C(=C\COc1c(C)c(C)c2c(c1C)CCC(C)(C(=O)O)O2)CCC[C@H](C)CCC[C@H](C)CCCC(C)C (stereo partly drawn)	Not Active	35%	Not Active	10 µM	42 µM	26 µM	39.8 µM	–	–
CCCCCCCCOC(=O)C1(C)CCc2c(C)c(OCC(=O)O)c(C)c(C)c2O1 (stereo not drawn)	Not Active	60%	Not Active	11 µM	42 µM	35 µM	–	–	–
Cc1c(C)c2c(c(C)c1OCC(=O)O)CCC(C)(CCC[C@H](C)CCC[C@H](C)CCCC(C)C)O2 (stereo partly drawn)	Not Active	55%	Not Active	6 µM	24 µM	11 µM	31.6 µM	–	–
CC(C)=CCC/C(C)=C/CC/C(C)=C/Cn1c2ccc(Cl)cc2c2ccc(C(C)C(=O)O)cc21 (stereo not drawn)	Not Active	80%	Not Active	2 µM	26 µM	4 µM	31.6 µM	–	–
C/C(=C\COC(=O)C1(C)CCc2c(C)c(OCC(=O)O)c(C)c(C)c2O1)CCC[C@H](C)CCC[C@H](C)CCCC(C)C (stereo partly drawn)	Not Active	135%	Not Active	13 µM	36 µM	24 µM	39.8 µM	–	–
CC(C)=CCC/C(C)=C/CC/C(C)=C/COc1c(C)c(C)c2c(c1C)CCC(C)(C(=O)O)O2 (stereo not drawn)	Not Active	35%	Not Active	8 µM	39 µM	28 µM	31.6 µM	–	–
CCCCCCCCCCCOC(=O)C1(C)CCc2c(C)c(OCC(=O)O)c(C)c(C)c2O1 (stereo not drawn)	Not Active	100%	Not Active	5 µM	23 µM	12 µM	31.6 µM	–	–
CCCCCCCCCCCCCCOc1c(C)c(C)c2c(c1C)CCC(C)(C(=O)O)O2 (stereo not drawn)	Not Active	40%	Not Active	9 µM	29 µM	14 µM	31.6 µM	–	–
CCCCCCCCCCCCCCOC(=O)C1(C)CCc2c(C)c(OCC(=O)O)c(C)c(C)c2O1 (stereo not drawn)	Not Active	95%	Not Active	6 µM	34 µM	22 µM	39.8 µM	–	–
